The values below come from article PMC10465592, “Reduced ADP off-rate by the yeast CCT2 double mutation T394P/R510H which causes Leber congenital amaurosis in humans” (Communications Biology, 2023).

Each structure is given as a SMILES string.

The target in assay [1] is T1, CCT/TRiC (Saccharomyces cerevisiae).
T1 construct: gene CCT2; native complex from yeast cells, two back-to-back rings each of eight distinct subunits CCT1-CCT8; CCT2 mutations introduced in the chromosomal gene
The assay is described as follows: stopped-flow transient kinetics of phosphate release (labelled phosphate-binding protein), burst-phase rates fit to conformational selection. The settings on record: 25 °C, pH 7.5 Tris-HCl, 10 mM MgCl2, 50 mM KCl, 20% glycerol, 1 mM DTT; stronger of two burst phases; read-out: ATP affinity (Kd). Format: biochemical.

Assay [2] shares this target. As to the kind of experiment: stopped-flow transient kinetics of phosphate release (labelled phosphate-binding protein), burst-phase rates fit to simple binding. The assay is classed as biochemical. The settings on record: 25 °C, pH 7.5 Tris-HCl, 10 mM MgCl2, 50 mM KCl, 20% glycerol, 1 mM DTT; both burst phases similar; read-out: ATP affinity (Kd). From the text:
stopped-flow transient kinetics of phosphate release (labelled phosphate-binding protein), burst-phase rates fit to simple binding on CCT/TRiC (Saccharomyces cerevisiae) | the ATP affinities corresponding to the two burst phases are similar and found to be

`Nc1ncnc2c1ncn2[C@@H]1O[C@H](COP(=O)(O)OP(=O)(O)OP(=O)(O)O)[C@@H](O)[C@H]1O` [ATP]: the Kd (in general, the constant that tells how readily two partners part at equilibrium) in assay [1] was around 27 µM; in assay [2] it was around 7 µM.
